Experimental data taken from publication doi:10.1101/2021.09.28.462264v1 (biorxiv, 2021).
Where two headings read alike, the source gives them in different places.

Columns and labels:
Settings in all cases: 10 mM MgCl2, 100 mM Tris pH 8.0, 25 °C
PcIBMS1 [1] = assay: DTNB end-point spectrophotometric assay; format: biochemical, Pogostemon cablin
PcIPMS1 [2] = assay: DTNB end-point spectrophotometric assay; format: biochemical, Pogostemon cablin
PcIBMS1 [3] = tested on: PcIBMS1
PcIPMS1 [4] = tested on: PcIPMS1

Structure (SMILES)	Km (PcIBMS1 [1]; 1 mM acetyl-CoA)	Km (PcIPMS1 [2]; 1 mM acetyl-CoA)	Km (PcIBMS1 [3]; 1 mM acetyl-CoA)	Km (PcIPMS1 [4]; 1 mM acetyl-CoA)	Km (PcIBMS1 [1]; 2 mM 4-methyl-2-oxovalerate)	Km (PcIPMS1 [2]; 2 mM 2-oxoisovalerate)	Km (PcIBMS1 [3]; 2 mM 4-methyl-2-oxovalerate)	Km (PcIPMS1 [4]; 2 mM 2-oxoisovalerate)
CC(C)C(=O)C(=O)O [2-oxoisovalerate]	1300 ± 128 µM	288 ± 8.2 µM	444 ± 44.4 µM	622 ± 58.3 µM	–	–	–	–
CC(C)CC(=O)C(=O)O [4-methyl-2-oxovalerate]	140 ± 39.4 µM	–	95 ± 17.9 µM	–	–	–	–	–
CC(=O)SCCNC(=O)CCNC(=O)[C@H](O)C(C)(C)COP(=O)(O)OP(=O)(O)OC[C@H]1O[C@@H](n2cnc3c(N)ncnc32)[C@H](O)[C@@H]1OP(=O)(O)O [acetyl-CoA]	–	–	–	–	145 ± 21.2 µM	48.1 ± 2.8 µM	132 ± 6.5 µM	22.7 ± 1.9 µM
